Source: patent US20170298056A1, “SMALL MOLECULE INHIBITORS OF HIV-1 ENTRY AND METHODS OF USE THEREOF” (Dana-Farber Cancer Institute, Inc., priority 2014, published 2017)

System: SIVmac239
Assay: Viral infection assay, SIV Env
Assay type: cell-based
Details: virus with SIVmac239 Env
Method: Production of recombinant HIV-1 expressing luciferase. […] After 48 hours, the supernatant was collected, buffered with 50 mM Hepes pH 7.4 (final concentration) and centrifuged for 5 minutes at 750×g and 4° C. The virus-containing supernatant was used directly or frozen at −80° C.
Viral infection assay. Each test compound was serially diluted in DMSO in a 96-well B&W isoplate (PerkinElmer, Boston, Mass.) using an HP D300 Digital Dispenser, to a final volume of 450 nl. DMSO was used as a control. Viruses pseudotyped with a specific Env were added to each well and incubated briefly at room temperature. Cf2Th-CD4/CCR5 cells were detached with StemPro Accutase Cell Dissociation Reagent (Invitrogen, cat #A11105-01), washed once, and 5000 cells were added to each well. […] Following incubation, the medium was aspirated and cells were lysed with 30 μl of Passive Lysis Buffer (Promega, cat #E1941). The activity of the firefly luciferase, which was used as a reporter protein in the system, was measured with a Centro LB 960 luminometer (Berthold Technologies, Oak Ridge, Tenn.). One hundred microliters of assay buffer (15 mM MgSO4, 15 mM KH2PO4/K2HPO4 pH 7.8, 1 mM ATP and 1 mM DTT) was injected to each well, followed by a 50 μl injection of 1 mM Dluciferin potassium salt (BD Pharmingen, San Jose, Calif.); luminescence was measured for 2 sec. […]

O=C(N/N=C/c1ccc(O)cc1)Nc1cccc2nsnc12 [Compound 18A]
inhibition of infection: significantly less potent
